Results published in ChEMBL document CHEMBL6078666, “Discovery of Novel Coumarin Pleuromutilin Derivatives as Potent Anti-MRSA Agents” (J Med Chem, 2024).
≈ marks a conversion by molar mass, not a printed value.

Key:
Assay type in all cases: functional
[1] = tested on: Staphylococcus aureus; experiment: Antibacterial activity against methicillin-resistant Staphylococcus aureus ATCC 33591 assessed as bacterial growth inhibition measured after 20 hrs by broth dilution method
[2] = tested on: Staphylococcus aureus; experiment: Antibacterial activity against methicillin-resistant Staphylococcus aureus ATCC 43300 assessed as bacterial growth inhibition measured after 20 hrs by broth dilution method
[3] = tested on: Staphylococcus epidermidis; experiment: Antibacterial activity against Staphylococcus epidermidis ATCC 51625 assessed as bacterial growth inhibition measured after 20 hrs by broth dilution method
[4] = tested on: Enterococcus faecium; experiment: Antibacterial activity against vancomycin-resistant Enterococcus faecium ATCC 51559 assessed as bacterial growth inhibition measured after 20 hrs by broth dilution method
[5] = tested on: Enterococcus faecium; experiment: Antibacterial activity against vancomycin-resistant Enterococcus faecium ATCC 700221 assessed as bacterial growth inhibition measured after 20 hrs by broth dilution method
[6] = tested on: Streptococcus pneumoniae; experiment: Antibacterial activity against penicillin-resistant Streptococcus pneumoniae ATCC 51916 assessed as bacterial growth inhibition measured after 20 hrs by broth dilution method
[7] = tested on: Streptococcus pneumoniae; experiment: Antibacterial activity against penicillin-intermediate Streptococcus pneumoniae ATCC 49619 assessed as bacterial growth inhibition measured after 20 hrs by broth dilution method
[8] = tested on: Staphylococcus aureus; experiment: Ratio of MBC to MIC against Staphylococcus aureus ATCC 43300
[9] = tested on: Staphylococcus epidermidis; experiment: Ratio of MBC to MIC against Staphylococcus epidermidis ATCC 51625
[10] = tested on: Enterococcus faecium; experiment: Ratio of MBC to MIC against vancomycin-resistant Enterococcus faecium ATCC 51559
[11] = tested on: Enterococcus faecium; experiment: Ratio of MBC to MIC against vancomycin-resistant Enterococcus faecium ATCC 700221
[12] = tested on: Streptococcus pneumoniae; experiment: Ratio of MBC to MIC against penicillin-intermediate Streptococcus pneumoniae ATCC 49619
[13] = tested on: Streptococcus pneumoniae; experiment: Ratio of MBC to MIC against penicillin-resistant Streptococcus pneumoniae ATCC 51916
[14] = tested on: Staphylococcus aureus; experiment: Antibacterial activity against methicillin-resistant Staphylococcus aureus clinical isolate 202311772 assessed as bacterial growth inhibition measured after 20 hrs by broth dilution method
[15] = tested on: Staphylococcus aureus; experiment: Antibacterial activity against methicillin-resistant Staphylococcus aureus clinical isolate 202313160 assessed as bacterial growth inhibition measured after 20 hrs by broth dilution method
[16] = tested on: Staphylococcus aureus; experiment: Antibacterial activity against methicillin-resistant Staphylococcus aureus clinical isolate 202405157 assessed as bacterial growth inhibition measured after 20 hrs by broth dilution method
[17] = tested on: Staphylococcus epidermidis; experiment: Antibacterial activity against methicillin-resistant Staphylococcus epidermidis clinical isolate 202409454 assessed as bacterial growth inhibition measured after 20 hrs by broth dilution method
[18] = tested on: Staphylococcus epidermidis; experiment: Antibacterial activity against methicillin-resistant Staphylococcus epidermidis clinical isolate 202409139 assessed as bacterial growth inhibition measured after 20 hrs by broth dilution method
[19] = tested on: Enterococcus faecium; experiment: Antibacterial activity against vancomycin-resistant Enterococcus faecium clinical isolate 202308456 assessed as bacterial growth inhibition measured after 20 hrs by broth dilution method
[20] = tested on: Staphylococcus aureus; experiment: Ratio of MBC to MIC against methicillin-resistant Staphylococcus aureus clinical isolate 202311772
[21] = tested on: Staphylococcus epidermidis; experiment: Ratio of MBC to MIC against methicillin-resistant Staphylococcus epidermidis clinical isolate 202409454
[22] = tested on: Enterococcus faecium; experiment: Ratio of MBC to MIC against vancomycin-resistant Enterococcus faecium clinical isolate 202308456
[23] = tested on: Staphylococcus aureus; experiment: Ratio of MBC to MIC against methicillin-resistant Staphylococcus aureus ATCC 33591

C=C[C@]1(C)C[C@@H](OC(=O)CSCCOc2cc(=O)oc3cc(Br)ccc23)[C@]2(C)[C@H](C)CC[C@]3(CCC(=O)[C@H]32)[C@@H](C)[C@@H]1O
MIC [1]: 0.125 µg/mL (≈ 0.189 µM) | MIC [2]: 0.25 µg/mL (≈ 0.378 µM) | MIC [3]: 0.125 µg/mL (≈ 0.189 µM) | MIC [4]: 0.5 µg/mL (≈ 0.756 µM) | MIC [5]: 0.125 µg/mL (≈ 0.189 µM) | MIC [6]: 0.25 µg/mL (≈ 0.378 µM) | MIC [7]: 0.125 µg/mL (≈ 0.189 µM) | Ratio [8]: >4 | Ratio [9]: >4 | Ratio [10]: 2 | Ratio [11]: 2 | Ratio [12]: >4

C=C[C@]1(C)C[C@@H](OC(=O)CSc2cc(=O)oc3ccc(Br)cc23)[C@]2(C)[C@H](C)CC[C@]3(CCC(=O)[C@H]32)[C@@H](C)[C@@H]1O
MIC [1]: 0.125 µg/mL (≈ 0.202 µM) | MIC [2]: 0.25 µg/mL (≈ 0.405 µM) | MIC [3]: 0.063 µg/mL (≈ 0.102 µM) | MIC [4]: 0.25 µg/mL (≈ 0.405 µM) | MIC [5]: 0.25 µg/mL (≈ 0.405 µM) | MIC [6]: 0.063 µg/mL (≈ 0.102 µM) | MIC [7]: 0.25 µg/mL (≈ 0.405 µM) | Ratio [8]: >4 | Ratio [9]: >4 | Ratio [10]: >4 | Ratio [11]: >4 | Ratio [13]: >4 | Ratio [12]: 2

C=C[C@]1(C)C[C@@H](OC(=O)CSc2cc(=O)oc3ccc(Cl)cc23)[C@]2(C)[C@H](C)CC[C@]3(CCC(=O)[C@H]32)[C@@H](C)[C@@H]1O
MIC [1]: 0.125 µg/mL (≈ 0.218 µM) | MIC [2]: 0.25 µg/mL (≈ 0.436 µM) | MIC [3]: 0.063 µg/mL (≈ 0.11 µM) | MIC [4]: 0.5 µg/mL (≈ 0.872 µM) | MIC [5]: 0.125 µg/mL (≈ 0.218 µM) | MIC [6]: 0.125 µg/mL (≈ 0.218 µM) | MIC [7]: 0.125 µg/mL (≈ 0.218 µM) | Ratio [8]: >4 | Ratio [9]: >4 | Ratio [10]: 2 | Ratio [11]: >4 | Ratio [13]: 4 | Ratio [12]: 2

C=C[C@]1(C)C[C@@H](OC(=O)CSCCOc2cc(=O)oc3ccc(Cl)cc23)[C@]2(C)[C@H](C)CC[C@]3(CCC(=O)[C@H]32)[C@@H](C)[C@@H]1O
MIC [1]: 0.5 µg/mL (≈ 0.81 µM) | MIC [2]: 0.5 µg/mL (≈ 0.81 µM) | MIC [3]: 0.125 µg/mL (≈ 0.203 µM) | MIC [4]: 1 µg/mL (≈ 1.62 µM) | MIC [5]: 1 µg/mL (≈ 1.62 µM) | MIC [6]: 2 µg/mL (≈ 3.24 µM) | MIC [7]: 4 µg/mL (≈ 6.48 µM) | Ratio [8]: >4 | Ratio [9]: >4 | Ratio [10]: >4 | Ratio [11]: >4 | Ratio [12]: >4

C=C[C@]1(C)C[C@@H](OC(=O)CSCCOc2cc(=O)oc3cc(F)ccc23)[C@]2(C)[C@H](C)CC[C@]3(CCC(=O)[C@H]32)[C@@H](C)[C@@H]1O
MIC [1]: 0.125 µg/mL (≈ 0.208 µM) | MIC [2]: 0.125 µg/mL (≈ 0.208 µM) | MIC [3]: 0.031 µg/mL (≈ 0.0516 µM) | MIC [4]: 0.25 µg/mL (≈ 0.416 µM) | MIC [5]: 0.125 µg/mL (≈ 0.208 µM) | MIC [6]: 0.125 µg/mL (≈ 0.208 µM) | MIC [7]: 0.25 µg/mL (≈ 0.416 µM) | Ratio [8]: >4 | Ratio [9]: >4 | Ratio [10]: 2 | Ratio [11]: >4 | Ratio [12]: >4

C=C[C@]1(C)C[C@@H](OC(=O)CSCCOc2cc(=O)oc3ccc(OC)cc23)[C@]2(C)[C@H](C)CC[C@]3(CCC(=O)[C@H]32)[C@@H](C)[C@@H]1O
MIC [1]: 0.125 µg/mL (≈ 0.204 µM) | MIC [2]: 0.25 µg/mL (≈ 0.408 µM) | MIC [3]: 0.031 µg/mL (≈ 0.0506 µM) | MIC [4]: 0.25 µg/mL (≈ 0.408 µM) | MIC [5]: 0.063 µg/mL (≈ 0.103 µM) | MIC [6]: 0.125 µg/mL (≈ 0.204 µM) | MIC [7]: 0.125 µg/mL (≈ 0.204 µM) | Ratio [8]: >4 | Ratio [9]: 4 | Ratio [10]: 1 | Ratio [11]: >4 | Ratio [12]: >4

C=C[C@]1(C)C[C@@H](OC(=O)CSc2cc(=O)oc3cc(F)ccc23)[C@]2(C)[C@H](C)CC[C@]3(CCC(=O)[C@H]32)[C@@H](C)[C@@H]1O
MIC [1]: 0.031 µg/mL (≈ 0.0557 µM) | MIC [2]: 0.063 µg/mL (≈ 0.113 µM) | MIC [3]: 0.031 µg/mL (≈ 0.0557 µM) | MIC [4]: 0.031 µg/mL (≈ 0.0557 µM) | MIC [5]: 0.031 µg/mL (≈ 0.0557 µM) | MIC [6]: 0.125 µg/mL (≈ 0.225 µM) | MIC [7]: 0.063 µg/mL (≈ 0.113 µM) | Ratio [8]: 4 | Ratio [9]: >4 | Ratio [10]: 1 | Ratio [11]: 1 | Ratio [13]: 4 | Ratio [12]: 2 | MIC [14]: 0.031 µg/mL (≈ 0.0557 µM) | MIC [15]: 0.063 µg/mL (≈ 0.113 µM) | MIC [16]: 0.063 µg/mL (≈ 0.113 µM) | MIC [17]: 0.063 µg/mL (≈ 0.113 µM) | MIC [18]: 0.125 µg/mL (≈ 0.225 µM) | MIC [19]: 0.031 µg/mL (≈ 0.0557 µM) | Ratio [20]: 2 | Ratio [21]: 2 | Ratio [22]: 1

C=C[C@]1(C)C[C@@H](OC(=O)CSc2cc(=O)oc3ccc(OC)cc23)[C@]2(C)[C@H](C)CC[C@]3(CCC(=O)[C@H]32)[C@@H](C)[C@@H]1O
MIC [1]: 0.125 µg/mL (≈ 0.22 µM) | MIC [2]: 0.125 µg/mL (≈ 0.22 µM) | MIC [3]: 0.063 µg/mL (≈ 0.111 µM) | MIC [4]: 0.125 µg/mL (≈ 0.22 µM) | MIC [5]: 0.063 µg/mL (≈ 0.111 µM) | MIC [6]: 0.125 µg/mL (≈ 0.22 µM) | MIC [7]: 0.125 µg/mL (≈ 0.22 µM) | Ratio [23]: 4 | Ratio [8]: 2 | Ratio [9]: >4 | Ratio [10]: 2 | Ratio [11]: >4 | Ratio [12]: >4
